Structures can show the parent of a compound that is named as a salt. Where two headings read alike, the source gives them in different places.
Assays:
[1] = molecular target: PDK1 (Homo sapiens (Human), UniProt O15530); experiment: PDK1 kinase assay (coupled PDK1/AKT/FAM-crosstide assay, IMAP fluorescence polarization); format: biochemical
Outline: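 Inhibition is derived by 4-parameter fitting of ΔmP from an IMAP fluorescence polarization read of FAM-crosstide (100 nM) phosphorylation. The cascade ran 30 min at 25 °C with 40 μM ATP, using insect-cell GST-PDK1 51-359 (0.75 nM) driving 10 nM unphosphorylated AKT2 140-467-PIFtide fusion.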

[2] = system: phospho-akt (Thr308) in PC-3 cells; experiment: Inhibition of phospho-akt (Thr308) in PC-3 cells, MSD phospho-akt 308 ELISA kit; format: cell-based; settings: Homo sapiens, 2 hours, no serum, read-out: EC50
Outline: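 Electrochemiluminescent MSD ELISA of Thr308-phosphorylated Akt after a 2 h serum-free compound exposure of PC-3 cells (15,000/well, plated overnight). Controls: DMSO (high), 5 μM wortmannin (low). Lysate binding overnight at 4 °C; detection antibody 1 h at room temperature.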

[3] = inhibition of phospo-PDK1 in vitro
[4] = inhibition of P308 Akt in PC-3 cells, MSD
[5] = PC-3, 2 h, inhibition of P308 Akt in PC-3 cells using MSD
[6] = inhibition of P308 Akt in PC-3 cells using MSD

Sequence of PDK1 (O15530 51-359): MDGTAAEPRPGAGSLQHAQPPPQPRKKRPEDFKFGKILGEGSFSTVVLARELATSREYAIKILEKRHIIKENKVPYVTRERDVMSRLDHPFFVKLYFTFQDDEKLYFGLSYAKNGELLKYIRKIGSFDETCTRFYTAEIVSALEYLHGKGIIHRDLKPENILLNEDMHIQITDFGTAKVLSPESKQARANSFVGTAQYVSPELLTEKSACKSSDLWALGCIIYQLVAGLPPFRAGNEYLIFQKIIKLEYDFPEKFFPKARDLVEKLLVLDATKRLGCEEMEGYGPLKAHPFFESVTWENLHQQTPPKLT

Compound | IC50 [1, 3] | EC50 [2, 4] | IC50 ([1]; inhibition of PDK1 in vitro) | EC50 [2, 5] | EC50 [2, 6]
Nc1cnc(-c2ccc(CNc3ncc(C(F)(F)F)cc3C(=O)Nc3ccc(F)cc3)cn2)cn1 [Example 325] | – | – | 100 to 1000 nM | 1000 to 10000 nM | –
Nc1ncc(-c2ccc(CNc3ncc(C(F)(F)F)cc3C(=O)Nc3ccc(F)cc3)cc2)nc1C(=O)N1CCNCC1 [Example 220, 2-{4-[5-Amino-6-(piperazine-1-carbonyl)-pyrazin-2-yl]-benzylamino}-N-(4-fluoro-phenyl)-5-trifluoromethyl-nicotinamide] | – | – | < 100 nM | – | 1000 to 10000 nM
NCCNS(=O)(=O)c1cnc(NCc2ccc(-c3ccc4ncnc(N)c4c3)s2)c(C(=O)NCc2ccc(F)c(F)c2)c1 [Example 8.6.13, 5-(N-(2-aminoethyl)sulfamoyl)-2-(((5-(4-aminoquinazolin-6-yl)thiophen-2-yl)methyl)amino)-N-(3,4-difluorobenzyl) nicotinamide] | 1000 to 5000 nM | > 10000 nM | – | – | –
C[C@H](NC(=O)c1cc(C(F)(F)F)cnc1NCc1ccc(-c2cnc3[nH]nc(N)c3c2)cc1)c1ccc(Cl)cc1 [Example 277, 2-(4-(3-amino-1H-pyrazolo [3,4-b]pyridin-5-yl)benzylamino)-N-(1-(4-chlorophenyl)ethyl)-5-(trifluoromethyl) nicotinamide] | – | – | < 100 nM | – | < 1000 nM
Nc1n[nH]c2ncc(-c3ccc(CNc4ncc(C(F)(F)F)cc4C(=O)NCC4CCCO4)cc3)cc12 (centres unmarked) [Example 265, 2-(4-(3-amino-1H-pyrazolo [3,4-b]pyridin-5-yl)benzylamino)-N-((tetrahydrofuran-2-yl)methyl)-5-(trifluoromethyl) nicotinamide] | – | – | < 100 nM | 1000 to 10000 nM | –
Cn1cc(-c2ccc(CNc3ncc(C#N)nc3C(=O)NCc3cncc(F)c3)cc2)c2c(N)ncnc21 [Example 28, 3-(4-(4-amino-7-methyl-7H-pyrrolo[2,3-d]pyrimidin-5-yl)benzylamino)-6-cyano-N-((5-fluoropyridin-3-yl)methyl)pyrazine-2-carboxamide] | < 100 nM | < 1000 nM | – | – | –
CC(N)CCc1nc(-c2ccc(CNc3ncc(C#N)cc3C(=O)N[C@@H](C)c3ccc(F)cc3)cc2)cnc1N (stereo partly drawn) [Example 85, 2-{4-[5-Amino-6-(3-amino-butyl)-pyrazin-2-yl]-benzylamino}-5-cyano-N-[(S)-1-(4-fluoro-phenyl)-ethyl]-nicotinamide] | – | – | < 100 nM | – | < 1000 nM
Cn1cc(-c2ccc(CNc3ncc(C(F)(F)F)cc3C(=O)Nc3ccc(F)cn3)cc2)c2c(N)ncnc21 [Example 338, 2-(4-(4-amino-7-methyl-7H-pyrrolo[2,3-d]pyrimidin-5-yl)-benzylamino)-N-(5-fluoropyridin-2-yl)-5-(trifluoromethyl)nicotinamide] | – | – | < 100 nM | – | 1000 to 10000 nM
Nc1ncnc2ccc(-c3ccc(CNc4nc5c(cc4C(=O)NCc4ccc(F)c(F)c4)CCC5)s3)cc12 [Ex. 8.15.1, 2-({[5-(4-aminoquinazolin-6-yl)thiophen-2-yl]methyl}amino)-N-(3,4-difluorobenzyl)-6,7-dihydro-5H-cyclopenta [b]pyridine-3-carboxamide] | 100 to 1000 nM | 1000 to 10000 nM | – | – | –
C[C@H](NC(=O)c1cc(C#N)cnc1NCc1ccc(-c2ccc(N)nc2)cc1)c1ccc(F)c(F)c1 [Example 367, (S)-2-(4-(6-aminopyridin-3-yl)benzylamino)-5-cyano-N-(1-(3,4-difluorophenyl)ethyl) nicotinamide] | – | – | < 100 nM | – | < 1000 nM
C[C@H](NC(=O)c1cccnc1NCc1ccc(-c2ccc(N)nc2)cc1)c1ccc(F)c(F)c1 [Example 369, (S)-2-(4-(6-aminopyridin-3-yl)benzylamino)-N-(1-(3,4-difluorophenyl)ethyl) nicotinamide] | – | – | < 100 nM | – | 1000 to 10000 nM
Nc1ncc(-c2ccc(CNc3ncc(C(F)(F)F)cc3C(=O)Nc3ccc(F)cc3)cc2)nc1O[C@H]1CCNC1 [Example 163, 2-{4-[5-Amino-6-((S)-pyrrolidin-3-yloxy)-pyrazin-2-yl]-benzylamino}-N-(4-fluoro-phenyl)-5-trifluoromethyl-nicotinamide] | – | – | < 100 nM | – | < 1000 nM
Nc1n[nH]c2ncc(-c3ccc(CNc4ncc(C(F)(F)F)cc4C(=O)N4CC(F)(F)C4)cc3)cc12 [Example 293] | – | – | 1000 to 5000 nM | > 10000 nM | –
CCCNC(=O)c1cccnc1NCc1cccc(-c2c[nH]c3ncccc23)c1 [Example 1.9, N-propyl-2-{[3-(1H-pyrrolo[2,3-b]pyridin-3-yl)benzyl]amino}pyridine-3-carboxamide] | > 5000 nM | 1000 to 10000 nM | – | – | –
C[C@H](NC(=O)c1cc(I)cnc1NCc1ccc(-c2ccc3ncnc(N)c3c2)s1)c1ccc(F)cc1 [Example 7.21.2, 2-({[5-(4-aminoquinazolin-6-yl)thiophen-2-yl]methyl}amino)-N-[(1S)-1-(4-fluorophenyl)ethyl]-5-iodopyridine-3-carboxamide] | 100 to 1000 nM | < 1000 nM | – | – | –
Cc1cc(N)ncc1-c1ccc(CNc2ncc(C#N)cc2C(=O)N[C@@H](C)c2ccc(F)cc2)cc1 [Example 121, (S)-2-(4-(6-amino-4-methylpyridin-3-yl)benzylamino)-5-cyano-N-(1-(4-fluorophenyl)ethyl) nicotinamide] | – | – | 100 to 1000 nM | – | > 10000 nM
COCCCc1nc(-c2ccc(CNc3ncc(C#N)cc3C(=O)N[C@@H](C)c3ccc(F)cc3)cc2)cnc1N [Example 92, 2-{4-[5-Amino-6-(3-methoxy-propyl)-pyrazin-2-yl]-benzyl-amino}-5-cyano-N-[(S)-1-(4-fluoro-phenyl)-ethyl]-nicotinamide] | – | – | < 100 nM | – | 1000 to 10000 nM

Second part, the compound after the results:

IC50 [1, 3] | EC50 [2, 4] | IC50 ([1]; inhibition of PDK1 in vitro) | EC50 [2, 5] | EC50 [2, 6] | Compound
1000 to 5000 nM | > 10000 nM | – | – | – | C[C@H](NC(=O)c1cccnc1NCc1ccc(-c2ccc3nc(N)[nH]c3c2)s1)c1ccc(F)cc1 [Example 2.21, (S)-2-(((5-(2-amino-1H-benzo[d]imidazol-6-yl)thiophen-2-yl)methyl)amino)-N-(1-(4-fluorophenyl)ethyl)nicotinamide]
< 100 nM | < 1000 nM | – | – | – | C[C@H](NC(=O)c1cccnc1NC/C=C/c1ccc2c(c1)NC(=O)/C2=C\c1cnc[nH]1)c1ccc(F)cc1 [Example 15.22, 2-((E)-3-((Z)-3-((1H-imidazol-5-yl)methylene)-2-oxoindolin-6-yl)allylamino)-N-((S)-1-(4-fluorophenyl)ethyl) nicotinamide]
100 to 1000 nM | < 1000 nM | – | – | – | C[C@H](NC(=O)c1cccnc1N[C@@H](COc1ccc2[nH]c(=O)[nH]c2c1)c1cccc(Cl)c1)c1ccc(F)c(F)c1 [Example 16.9, 2-((R)-1-(3-chlorophenyl)-2-(2-oxo-2,3-dihydro-1H-benzo[d]imidazol-5-yloxy)ethylamino)-N-((S)-1-(3,4-difluorophenyl)ethyl)nicotinamide]
> 5000 nM | > 10000 nM | – | – | – | Nc1ncnc2ccc(-c3ccc(CNc4ncccc4C(=O)Nc4cccc(C(F)(F)F)c4)s3)cc12 [Example 3.53, 2-({[5-(4-aminoquinazolin-6-yl)thiophen-2-yl]methyl}amino)-N-[3-(trifluoromethyl)phenyl]pyridine-3-carboxamide (TFA salt)]
100 to 1000 nM | 1000 to 10000 nM | – | – | – | C[C@H](NC(=O)c1cccnc1NCc1ccc(-c2ccc3ncnc(NCCN)c3c2)s1)c1ccc(F)cc1 [Example 2.15, (S)-2-(((5-(4-(2-aminoethylamino)quinazolin-6-yl)thiophen-2-yl)methyl)amino)-N-(1-(4-fluorophenyl)ethyl)nicotinamide]
< 100 nM | < 1000 nM | – | – | – | C[C@H](NC(=O)c1nccnc1NC/C=C/c1ccc2c(c1)NC(=O)/C2=C\c1cnc[nH]1)c1ccc(F)cc1 [Example 15.20, 3-((E)-3-((Z)-3-((1H-imidazol-5-yl)methylene)-2-oxoindolin-6-yl)allylamino)-N-((S)-1-(4-fluorophenyl)ethyl) pyrazine-2-carboxamide]
> 5000 nM | > 10000 nM | – | – | – | Nc1ncnc2ccc(-c3ccc(CNc4nccnc4C(=O)Nc4ccc(F)c(F)c4)s3)cc12 [Example 3.72, 3-({[5-(4-aminoquinazolin-6-yl)thiophen-2-yl]methyl}amino)-N-(3,4-difluorophenyl)pyrazine-2-carboxamide (TFA salt)]
> 5000 nM | > 10000 nM | – | – | – | COc1cc(NC(=O)c2cccnc2NCc2ccc(-c3ccc4ncnc(N)c4c3)s2)cc(C(F)(F)F)c1 [Example 3.52, 2-({[5-(4-aminoquinazolin-6-yl)thiophen-2-yl]methyl}amino)-N-[3-methoxy-5-(trifluoromethyl)phenyl]pyridine-3-carboxamide (TFA salt)]
< 100 nM | 1000 to 10000 nM | – | – | – | COCCNc1ncnc2ccc(-c3ccc(CNc4ncccc4C(=O)N[C@@H](C)c4ccc(F)c(F)c4)s3)cc12 [Example 4.33]
< 100 nM | < 1000 nM | – | – | – | O=C1Nc2cc(/C=C/CNc3ncccc3C(=O)NCc3cncc(F)c3)ccc2/C1=C/c1cnc[nH]1 [Example 15.15, 2-((E)-3-((Z)-3-((1H-imidazol-5-yl)methylene)-2-oxoindolin-6-yl)allylamino)-N-((5-fluoropyridin-3-yl)methyl) nicotinamide]
< 100 nM | 1000 to 10000 nM | – | – | – | C[C@H](NC(=O)c1cccnc1NCc1ccc(-c2ccc3ncnc(N)c3c2)s1)c1cc(F)cc(F)c1 [Example 3.62, (S)-2-(((5-(4-aminoquinazolin-6-yl)thiophen-2-yl)methyl)amino)-N-(1-(3,5-difluorophenyl)ethyl) nicotinamide (TFA salt)]
